Assays:
TNF-α = TNF-α ELISA after LPS; format: cell-based; conditions: 4 h after LPS treatment
Procedure: (§1) The production of TNF-α was measured with a commercial ELISA kit from R&D Systems. The PGE2 release was measured with a commercial ELISA kit from Cayman Chemical Company.
(§2) Neuron-glia cultures were pretreated for 30 min with MMT (3 μM) or vehicle before LPS stimulation. […] Production of superoxide (30 min after LPS) and iROS (2 h after LPS) was decreased by MMT treatment (FIGS. 6A and 6B). […] The production of PGE2 in cultures pretreated with 3 and 10 μM MMT decreased by 23% and 27% respectively (FIG. 6E).

[1] = test system: rewarding effect of morphine; experiment: Conditioned place preference (CPP) test in chronic morphine-treated rats; format: in vivo, SD rats
Procedure: The SD rats were divided into four groups as follow: • 1. Control group: (inject saline only) • 2. Morphine only group: (M, 5 mg/kg) • 3. Pretreatment memantine (MEM, 0.2 mg/kg) with morphine group • (MEM was administrated 30 min before each M injection for 6 days) • 4. Post-treatment MEM group • (MEM was administrated after chronic M injection for 6 days)
Drug-induced reward effect was measured by the conditioned place preference (CPP) test. The CPP test apparatus was divided into two compartments. A two compartment box (60×29.2×29.2 cm) with a transparent Plexiglas front was separated by a gray cylinder platform (10.3 cm in diameter and 12 cm in height) as the Dr. Tseng described previously was used (Terashvili et al., 2008). One compartment was white with a textured floor and the other was black with a smooth floor. […] We determined the place preference before conditioning and on the day after conditioning (day 0, day 7, day 11 and day 13) by placing the rat into the CPP test apparatus with the gray cylinder doors open for 15 min. The time that the rats stayed in each compartment was recorded. The measurement of the drug reward effect was determined by the increase in the time spent in the compartment previously paired with drug injection relative to that spent in the saline-paired compartment.

nitric oxide = experiment: Nitrite assay (Griess reagent) after LPS; format: cell-based; conditions: 24 and 48 h after LPS stimulation
Procedure: As an indicator of nitric oxide production, the amount of nitrite accumulated in culture supernatant was determined with a colorimetric assay using Griess reagent [1% sulfanilamide, 2.5% H3PO4, 0.1% N-(1-naphthyl)ethylenediamine dihydrochloride]. Briefly, 50 μL of Griess reagent and 50 μL of culture supernatant were incubated in the dark at room temperature for 10 min. After incubation, the absorbance at 540 nm was determined with the Spectra Max Plus microplate spectrophotometer. The sample nitrite concentration was determined from a sodium nitrite standard curve.
as §2

HAPI = experiment: MTT cell viability of HAPI cells with LPS; format: cell-based; conditions: MMT 10 uM, LPS 100 ng/ml, 48 hrs
Procedure: HAPI was seeded with 1*10^4/well in 96-well plate. Twenty-four hours later, it was treated with vehicle, MMT (10 uM), and LPS 100 ng/ml for 48 hrs. After adding MTT, cell viability was measured (FIG. 8A) and morphology (FIG. 8B) was examined by contrast microscope. Values are mean±SEM of three independent experiments. *p<0.05, compared with LPS.

PGE2 = PGE2 ELISA after LPS; format: cell-based
Procedure: as §1, §2

DA neurons = experiment: LPS-induced neurotoxicity in neuron/glia cultures from NADPH oxidase-deficient mice; format: cell-based; conditions: NADPH oxidase-deficient (gp 91 lacking) neuron/glia cultures, preliminary data
Source text: Results from two sets of experiments support this conclusion. […] Thus, the failure for MMT to protect LPS-induced DA neurons toxicity in NADPH oxidase-deficient neuron/glia cultures implies a critical role of this enzyme in mediating the neuroprotective effect of MMT. The present invention determines the binding site of MMT in microglia.
Timed-pregnant (gestational day 14) adult female Fisher 344 rats were purchased from Charles River Laboratories (Raleigh, N.C., USA). Eight-wk-old (25-30 g) male and female B6.129S6-Cybb^tm1Din(PHOX^−/−) and C57BL/6J (PHOX^+/+) mice were purchased from Jackson Laboratories (Bar Harbor, Me., USA) and maintained in a strict pathogen free environment. The PHOX^−/− mice lack the functional catalytic subunit of the NADPH oxidase complex, gp91. NADPH oxidase is an inducible electron transport system in phagocytic cells that is responsible for the generation of the respiratory burst. PHOX^−/− mice are unable to generate extracellular superoxide in response to LPS or other immunological stimulus. Breeding of the mice was designed to achieve accurate timed-pregnancy±0.5 days. Because the PHOX^−/− mutation is maintained in the C57BL/6J background, the C57BL/6J (PHOX^+/+) mice were used as control animals. Housing, breeding and experimental use of the animals were performed in strict accordance with the National Institutes of Health guidelines. […]

CC12CC3CC(C)(C1)CC(N)(C3)C2.Cl [MMT, 1-amino-3,5-dimethyladamantane hydrochloride]
release of TNF-α (TNF-α): reduced | time of staying in the compartment paired with morphine (CPP) ([1]; post-treatment, memantine 0.2 mg/kg s.c. once daily for 6 days after chronic morphine): reduced time of staying in the compartment paired with morphine | time of staying in the compartment paired with morphine (CPP) ([1]; pretreatment, memantine 0.2 mg/kg s.c. 30 min before each morphine 5 mg/kg i.p., 6 days): reduced time of staying in the compartment paired with morphine | release of NO (measured as nitrite) (nitric oxide): reduced | effect on apoptosis of activated microglia induced by LPS (MTT cell viability) (HAPI): lack of effect | decrease of PGE2 production (PGE2; pretreated with 3 μM MMT): 23% | decrease of PGE2 production (PGE2; pretreated with 10 μM MMT): 27% | neuroprotective effect on LPS-induced neurotoxicity (DA neurons): failed to produce any neuroprotective effect

Reference: patent US20150080475A1, “Memantine Protects Inflammation-Related Degeneration of Dopamine Neurons Through Inhibition of Over-Activated Microglia and Release of Neurotrophic Factors From Astroglia” (priority 2009, published 2015)
